Source: article PMC6410202, “Dual Action of the PN159/KLAL/MAP Peptide: Increase of Drug Penetration across Caco-2 Intestinal Barrier Model by Modulation of Tight Junctions and Plasma Membrane Permeability” (Pharmaceutics, 2019)

Assays:
[1] = tested on: Pseudomonas aeruginosa (ATCC 27853); experiment: microbe, parasite or virus in culture; conditions: Pseudomonas aeruginosa, ATCC27853, 18 h
Procedure: (§1) The MIC of PN159 on the 6 sensitive and resistant ESKAPE pathogenic strains was determined in cation-adjusted Muller–Hinton broth. […] Minimum inhibitory concentrations (MICs) were determined by using a standard serial broth dilution technique. Briefly, 11-step serial dilutions were prepared in 96-well microtiter plates with three biological replicates per strain. Pathogens were inoculated into each well at a density of 5×10^5 bacteria/mL, and the plates were incubated at 37 °C. Plates were shaken at 300 rpm during incubation for 18 h. Cell growth was monitored by measuring the optical density (OD600 value, Synergy 2 microplate reader BioTek Instruments Inc, Winooski, VT, USA). […] As reference compounds we tested the antimicrobial activity of three bactericidal drugs with different modes of action.

[2] = tested on: Enterobacter cloacae spp. cloacae (ATCC 13047); experiment: microbe, parasite or virus in culture; conditions: Enterobacter cloacae, ATCC13047, 18 h
Procedure: as §1

[3] = tested on: Acinetobacter baumannii (ATCC 17978); experiment: MIC, serial broth dilution; format: cell-based; conditions: ATCC17978, Muller–Hinton broth, 18 h
Procedure: as §1

[4] = tested on: Staphylococcus aureus (ATCC 29213); experiment: MIC, serial broth dilution; format: cell-based; conditions: ATCC29213, Muller–Hinton broth, 18 h
Procedure: as §1

[5] = tested on: Klebsiella pneumoniae (ATCC 10031); experiment: MIC, serial broth dilution; format: cell-based; conditions: ATCC10031, Muller–Hinton broth, 18 h
Procedure: as §1

Caco-2 cells = experiment: Impedance measurement (RTCA), Caco-2 cells; format: cell-based; conditions: CPPs 100 μM, 24-h monitoring
Procedure: Kinetics of epithelial cell reaction to PN159 peptide treatment was monitored by impedance measurement at 10 kHz (RTCA-SP instrument, ACEA Biosciences, San Diego, CA, USA). Impedance measurement is non-invasive, label-free and real time, and linearly correlates with adherence, growth, number and viability of cells. For background measurements 50 μL cell culture medium was added to the wells, then cells were seeded at a density of 6 × 10^3 cells/well to the coated 96-well plates with integrated gold electrodes (E-plate 96, ACEA Biosciences). Cells were cultured for 5–7 days in a CO2 incubator at 37 °C and monitored every 10 min until the end of experiments. Cells were treated with PN159 peptide solutions at 1, 3, 10, 30 and 100 μM concentrations at the beginning of the plateau phase of growth and the effects were followed for 1-h or 24 h. To measure cell recovery, peptide solutions were changed to culture medium and the impedance was monitored for one week. Culture medium was changed every 2 days. Caco-2 cells were also treated with the three selected CPPs, Pep-1, R8 and φ-peptide, at 100 μM concentrations at the beginning of the plateau phase of cell growth for 24-h. Triton X-100 detergent (1 mg/mL) was used as a reference compound to induce cell death. Cell index was defined as Rn-Rb at each time point of measurement, where Rn is the cell-electrode impedance of the well when it contains cells and Rb is the background impedance of the well with the medium alone.

[6] = tested on: Enterococcus faecium (ATCC 700221); experiment: MIC, serial broth dilution; format: cell-based; conditions: ATCC700221, Brain-Heart-Infusion broth, 18 h, vancomycin resistant strain
Procedure: as §1

EpiAirway model = conditions: airway epithelial tissue model, by PN159; cited from earlier work
in vitro = conditions: human, Caco-2, Papp A-B
Procedure: (§2) In the permeability experiments inserts with Caco-2 cell layers grown for 3 weeks were transferred to 12-well plates containing 1.5 mL Ringer–Hepes buffer in the lower (basal or acceptor) compartments. In the upper or apical compartments culture medium was replaced by 0.5 mL buffer containing peptide solutions: PN159 peptide at 1, 3, 10 and 30 μM concentrations and CPPs at 100 μM concentration. […] The incubation with permeability markers in the presence of PN159 peptide lasted for 30 min. In case of CPPs the incubation time with fluorescein was 1-h. Samples were collected from both compartments and the concentrations of the marker molecules were determined by a fluorescence multi-well plate reader (Fluostar Optima; excitation wavelength: 485 nm, emission wavelength: 535 nm in the case of fluorescein and excitation wavelength: 584 nm, emission wavelength: 680 nm in the case of Evans-blue labeled albumin). Fluorescein isothiocyanate (FITC)-labelled dextran marker molecules (Table 1) were used at 1 mM concentrations, and fluorescence intensities of collected samples were measured using a Fluorolog FL3-22 (Horiba Jobin Yvon, Paris, France) spectrofluorometer using 492 nm excitation wavelength, 515 nm emission wavelength, and 0.5 s integration time. Drugs were used at 10 μM concentrations and samples were measured by HPLC as described below. The apparent permeability coefficients (Papp) were calculated as described previously. Briefly, cleared volume was calculated from the concentration difference of the tracer in the basal compartments (Δ[C]B) after 30 min and apical compartments at 0 h ([C]A), the volume of the basal compartment (VB; 1.5 mL) and the surface area available for permeability (A; 1.1 cm^2).
(§3) Analytical measurements were performed on a Merck-Hitachi LaChrom HPLC system equipped with an ultraviolet (UV) and fluorescence detector (Merck, Darmstadt, Germany). All reagents used were of analytical reagent grade. […] In both cases 10μL sample was injected into the chromatographic system.
(§4) The chromatographic column was maintained at 40 °C and the 5 μL sample was injected onto the column.
(§5) The column temperature was maintained at 40 °C and a 20 μL sample was injected onto the chromatographic system. […] UV detection was set at 228 nm.

Caco-2 cell layers = experiment: Penetration of marker and drug molecules across Caco-2 cell layers (Papp A-B); conditions: CPPs 100 μM, 1-h treatment
Procedure: as §2, §3, §4, §5

Klebsiella pneumoniae = tested on: Klebsiella pneumoniae; set-up: method as in PMID 27617798; conditions: cited from earlier work

Compound: CNC(C)C1CCC(N)C(OC2C(N)CC(N)C(OC3OCC(C)(O)C(NC)C3O)C2O)O1 (stereo not drawn) [Gentamicin, gentamicin]
- MIC [1]: 2.3 µM
- MIC [2]: 1.1 µM
- MIC [3]: 0.6 µM
- MIC [4]: 1.1 µM
- MIC [5]: 0.6 µM

Compound: N=C(N)NCCC[C@H](NC(=O)[C@H](CCCNC(=N)N)NC(=O)[C@H](CCCNC(=N)N)NC(=O)[C@H](CCCNC(=N)N)NC(=O)[C@H](CCCNC(=N)N)NC(=O)[C@H](CCCNC(=N)N)NC(=O)[C@H](CCCNC(=N)N)NC(=O)[C@@H](N)CCCNC(=N)N)C(N)=O [R8]
- Cell impedance (normalized cell index) (Caco-2 cells): decreased the cell impedance

Compound: CO[C@@]1(NC(=O)Cc2cccs2)C(=O)N2C(C(=O)O)=C(COC(N)=O)CS[C@@H]21 [Cefoxitin, cefoxitin]
- MIC [1]: > 223 µM
- MIC [2]: > 223 µM
- MIC [3]: 223 µM
- MIC [4]: 6.9 µM
- MIC [6]: > 223 µM
- MIC [5]: 3.5 µM

Compound: COc1ccc2c3c1O[C@H]1C[C@@H](O)C=C[C@@]31CCN(C)C2 [galantamine]
- Increase of permeability (EpiAirway model): 2 to 3 fold

Compound: CN/C(=N/CCSCc1nc[nH]c1C)NC#N [cimetidine]
- Papp A→B at 30 min, 10 μM (in vitro; PN159 treated): 34.5 ± 4.5 ×10⁻⁶ cm/s
- Papp A→B at 30 min, 10 μM (in vitro; control): 0.9 ± 0.2 ×10⁻⁶ cm/s

Compound: cyclo[CGGFWRRRRGE(εAca)G] (cyclo(CGGFWRRRRGE)-{εAca-Gly}) [φ-peptide]
- Permeability for fluorescein marker molecule (Caco-2 cell layers): elevated permeability
- Cell impedance (normalized cell index) (Caco-2 cells): decreased the cell impedance

Compound: melittin
- Concentration needed for inhibition of growth (Klebsiella pneumoniae): more than 100 µM
